Source: patent US7947733B2, “Phosphorylated pyrone analogs and methods” (Limerick BioPharma, priority 2007, dated 2011)
Where “and” joins values, the source holds several entries; their conditions need not be identical. Equal values may be shown once. Values belong to the compound of their own block, whether it stands above or below them.

Tests used:
rats = experiment: Blood glucose levels in rats co-administered with quercetin-3′-O-phosphate and tacrolimus; assay type: in vivo, rat; conditions: for Blood glucose, Mean change from all vehicle control / Blood glucose, Mean change from Day 1: Prograf 0.5 mg/kg i.p. + Vehicle 1; for Blood glucose, Mean: Prograf 0.5 mg/kg i.p. Day 1 to Day 25 + Vehicle 1, 5 rats; for Blood glucose, individual rats: Prograf 0.5 mg/kg i.p. once daily Day 1 to Day 25 + Vehicle 1 Day 11 to Day 25
Experimental: One set of 5 rats is treated from day 1 to day 25 with inert vehicle 2 intraperitoneally and treated from day 11 to day 25 with inert vehicle 1 intraperitoneally. […] A third set 5 of rats is treated from day 1 to day 25 with tacrolimus (Prograf®) intraperitoneally at 0.5 mg/kg, and treated from day 11 to day 25 intraperitoneally with quercetin-3′-O-phosphate (Q-Phosphate) at 114 mg/kg. The blood glucose level in the rats is measured on days 1, 10, 15, 20, and 25.

kidney of rats = experiment: Renal pathology in rats co-administered with quercetin-3′-O-phosphate and tacrolimus; assay type: in vivo, rat; conditions: tacrolimus (Prograf) 0.5 mg/kg and inert vehicle, 25 days
Experimental: Tissue is removed from the kidney of rats treated with tacrolimus (Prograf®) at 0.5 mg/kg and inert vehicle, and from rats treated with tacrolimus (Prograf®) at 0.5 mg/kg and quercetin-3′-O-phosphate (Q-Phosphate) at 11 mg/kg, 28 mg/kg, and at 114 mg/kg for 25 days. […] The tissue from rats treated with Q-Phosphate and tacrolimus show no vacuoles.

[1] = in vivo; cited from earlier work

Blood glucose, Mean change from all vehicle control (rats; Day 1): -0.10 g/L
Blood glucose, Mean (rats; Day 1): 1.27 g/L
Blood glucose, Mean change from Day 1 (rats; Day 10): +0.22 g/l
Blood glucose, Mean change from all vehicle control (rats; Day 10): +0.23 g/l
Blood glucose, Mean (rats; Day 10): 1.49 g/L
Blood glucose, Mean change from Day 1 (rats; Day 15): +1.27 g/l
Blood glucose, Mean change from all vehicle control (rats; Day 15): +1.27 g/l
Blood glucose, Mean (rats; Day 15): 2.54 g/L
Blood glucose, Mean change from Day 1 (rats; Day 20): +1.66 g/l
Blood glucose, Mean change from all vehicle control (rats; Day 20): +1.81 g/l
Blood glucose, Mean (rats; Day 20): 2.93 g/L
Blood glucose, Mean change from Day 1 (rats; Day 25): +1.28 g/l
Blood glucose, Mean change from all vehicle control (rats; Day 25): +1.38 g/l
Blood glucose, Mean (rats; Day 25): 2.55 g/L
vacuolation of kidney tissue (kidney of rats): significant vacuolation
SMILES: C=CC[C@@H]1/C=C(\C)C[C@H](C)C[C@H](OC)[C@H]2O[C@@](O)(C(=O)C(=O)N3CCCC[C@H]3C(=O)O[C@H](/C(C)=C/[C@@H]3CC[C@@H](O)[C@H](OC)C3)[C@H](C)[C@@H](O)CC1=O)[C@H](C)C[C@@H]2OC [Prograf ®, tacrolimus, reference compound]
Blood glucose, individual rats (rats; Day 1): 1.16 g/l (2×) and 1.34 g/l and 1.22 g/l and 1.47 g/l
Blood glucose, individual rats (rats; Day 10): 1.30 g/L and 1.39 g/L and 1.40 g/L and 1.09 g/L and 2.25 g/L
Blood glucose, individual rats (rats; Day 15): 3.72 g/L and 1.67 g/L and 2.31 g/L and 1.97 g/L and 3.02 g/L
Blood glucose, individual rats (rats; Day 20): 2.79 g/L and 3.70 g/L and 2.97 g/L and 2.41 g/L and 2.77 g/L
Blood glucose, individual rats (rats; Day 25): 0.97 g/L and 3.16 g/L and 1.69 g/L and 2.98 g/L and 3.96 g/L

SMILES: O=c1c(O)c(-c2ccc(O)c(O)c2)oc2cc(O)cc(O)c12 [quercetin aglycone, quercetin]
serum half-life [1]: 19 to 25 h
